From PubChem BioAssay AID206 (DTP/NCI, 2004)
Where “and” joins values, the source holds several entries; their conditions need not be identical. Identical values can stand only once. Results filed as inconclusive are left out.

Test system: nude mice, HT29 intrarenal xenograft, tumor weight T/C
Test: NCI In Vivo Anticancer Drug Screen. Data for tumor model HT29;CX-1 Human Adenocarcinoma (MER+) (intrarenal inoculation) in NU/NU Swiss (nude) mice
Conditions: endpoint: mean tumor weight change, higher = larger tumour
Method in brief: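 Compounds were given to mice carrying transplantable tumors; a vehicle-dosed group served as control. The endpoint measured in each group was compared as a T/C quotient.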

[1] = dose: 100.0 mg/kg/injection, schedule: Q01DX010 (sc), vehicle: saline with Tween-80
[2] = dose: 200.0 mg/kg/injection, schedule: Q01DX010 (sc), vehicle: saline with Tween-80
[3] = dose: 100.0 mg/kg/injection, schedule: Q01DX010 (sc), vehicle: saline
[4] = dose: 150.0 mg/kg/injection, schedule: Q04DX004 (sc), vehicle: saline with Tween-80
[5] = dose: 300.0 mg/kg/injection, schedule: Q04DX004 (sc), vehicle: saline with Tween-80
[6] = dose: 600.0 mg/kg/injection, schedule: Q04DX004 (sc), vehicle: saline with Tween-80
[7] = dose: 75.0 mg/kg/injection, schedule: Q04DX004 (sc), vehicle: saline with Tween-80
[8] = dose: 1200.0 mg/kg/injection, schedule: Q04DX004 (sc), vehicle: saline with Tween-80
[9] = dose: 2400.0 mg/kg/injection, schedule: Q04DX004 (sc), vehicle: saline with Tween-80
[10] = dose: 400.0 mg/kg/injection, schedule: Q04DX004 (sc), vehicle: saline with Tween-80
[11] = dose: 800.0 mg/kg/injection, schedule: Q04DX004 (sc), vehicle: saline with Tween-80
[12] = dose: 1600.0 mg/kg/injection, schedule: Q04DX004 (sc), vehicle: saline with Tween-80

CCCCC1CCCCCCc2[nH]c(/C=C3\N=C(c4ccc[nH]4)C=C3OC)cc21 (stereo not drawn)
T/C (dose: 16.0 mg/kg/injection, schedule: Q04DX004 (sc), vehicle: saline with Tween-80): 200 % of control

COc1ccc(OC)c(/C=C/c2ccnc3ccccc23)c1
T/C [1]: 92 % of control | T/C [2]: 61 % of control | T/C (dose: 400.0 mg/kg/injection, schedule: Q01DX010 (sc), vehicle: saline with Tween-80): 91 % of control | T/C (dose: 800.0 mg/kg/injection, schedule: Q01DX010 (sc), vehicle: saline with Tween-80): 113 % of control

CC(C)CCCCCCCCCCCCC(=O)NCC(=O)NC1C(O)C(O)C(Nc2ncnc3nc[nH]c23)OC1C(O)CO (stereo not drawn)
T/C (dose: 0.75 mg/kg/injection, schedule: Q04DX004 (sc), vehicle: suspension in saline): 85 % of control | T/C (dose: 0.8 mg/kg/injection, schedule: Q01DX010 (sc), vehicle: saline): 21 % of control and 24 % of control | T/C (dose: 1.5 mg/kg/injection, schedule: Q04DX004 (sc), vehicle: suspension in saline): 47 % of control | T/C (dose: 3.0 mg/kg/injection, schedule: Q04DX004 (sc), vehicle: suspension in saline): 10 % of control and 23 % of control | T/C (dose: 6.0 mg/kg/injection, schedule: Q04DX004 (sc), vehicle: suspension in saline): 15 % of control

CO[C@H](C(=O)[C@@H](O)[C@@H](C)O)[C@@H]1Cc2cc3cc(OC4CC(OC5CC(O)C(O)C(C)O5)C(O)C(C)O4)c(C)c(O)c3c(O)c2C(=O)[C@H]1OC1CC(OC2CC(OC3CC(C)(O)C(O)C(C)O3)C(O)C(C)O2)C(O)C(C)O1 (stereo partly drawn)
T/C (dose: 0.25 mg/kg/injection, schedule: Q04DX004 (sc), vehicle: saline): 87 % of control | T/C (dose: 0.5 mg/kg/injection, schedule: Q04DX004 (sc), vehicle: saline): 53 % of control | T/C (dose: 1.0 mg/kg/injection, schedule: Q04DX004 (sc), vehicle: saline): 54 % of control | T/C (dose: 2.0 mg/kg/injection, schedule: Q01DX010 (sc), vehicle: saline): -80 % of control | T/C (dose: 2.0 mg/kg/injection, schedule: Q04DX004 (sc), vehicle: saline): 61 % of control

CC(Cc1ccc(O)c(O)c1)C(C)Cc1ccc(O)c(O)c1 (stereo not drawn)
T/C (dose: 600.0 mg/kg/injection, schedule: Q04DX004 (sc), vehicle: saline + alcohol): 68 % of control | T/C (dose: 900.0 mg/kg/injection, schedule: Q04DX004 (sc), vehicle: saline + alcohol): 102 % of control | T/C (dose: 1800.0 mg/kg/injection, schedule: Q04DX004 (sc), vehicle: saline + alcohol): 97 % of control

CCCC(=O)O
T/C [3]: 69 % of control | T/C (dose: 200.0 mg/kg/injection, schedule: Q01DX010 (sc), vehicle: saline): 65 % of control | T/C (dose: 400.0 mg/kg/injection, schedule: Q01DX010 (sc), vehicle: saline): 110 % of control | T/C (dose: 800.0 mg/kg/injection, schedule: Q01DX010 (sc), vehicle: saline): 79 % of control

Cc1cc(NCCN(C(C)C)C(C)C)nc(/N=C(\N)Nc2ccc(Cl)c(C(F)(F)F)c2)n1
T/C (dose: 20.0 mg/kg/injection, schedule: Q04DX004 (sc), vehicle: Klucel (hydroxypropylcellulose) (HPC)): 62 % of control | T/C (dose: 40.0 mg/kg/injection, schedule: Q04DX004 (sc), vehicle: Klucel (hydroxypropylcellulose) (HPC)): 51 % of control | T/C (dose: 80.0 mg/kg/injection, schedule: Q04DX004 (sc), vehicle: Klucel (hydroxypropylcellulose) (HPC)): 78 % of control | T/C (dose: 160.0 mg/kg/injection, schedule: Q04DX004 (sc), vehicle: Klucel (hydroxypropylcellulose) (HPC)): 62 % of control

[Cl][Pt+2][Cl].[NH-]C1CCC1.[NH2-]
T/C (dose: 6.25 mg/kg/injection, schedule: Q04DX004 (sc), vehicle: suspension in saline): 54 % of control | T/C (dose: 12.5 mg/kg/injection, schedule: Q04DX004 (sc), vehicle: suspension in saline): 41 % of control | T/C (dose: 25.0 mg/kg/injection, schedule: Q04DX004 (sc), vehicle: suspension in saline): 46 % of control

CN=S(=O)(OCCCCCOS(=O)(=NC)c1ccccc1)c1ccccc1 (stereo not drawn)
T/C [4]: 66 % of control | T/C [5]: 60 % of control | T/C [6]: 27 % of control

Cc1cc(=O)n2c3c(c4c(cc13)c(CN(C)C)cc(=O)n4C)OC2
T/C [7]: 117 % of control | T/C [4]: 57 % of control

OCC1OC(n2cnc3cc(Cl)c(Cl)cc32)C(O)C1O (stereo not drawn)
T/C [5]: 111 % of control | T/C [6]: 60 % of control | T/C [8]: 122 % of control

OCC1OC(n2cnc3c(=S)nc[nH]c32)C(O)C1O (stereo not drawn)
T/C (dose: 25.0 mg/kg/injection, schedule: Q01DX010 (sc), vehicle: saline): 54 % of control | T/C (dose: 50.0 mg/kg/injection, schedule: Q01DX010 (sc), vehicle: saline): 77 % of control | T/C [3]: 108 % of control

CCC1CN2C(=N1)c1ccccc1-c1cc(Cl)ccc12 (stereo not drawn)
T/C (dose: 12.5 mg/kg/injection, schedule: Q01DX010 (sc), vehicle: saline with Tween-80): 74 % of control | T/C (dose: 25.0 mg/kg/injection, schedule: Q01DX010 (sc), vehicle: saline with Tween-80): 37 % of control | T/C (dose: 50.0 mg/kg/injection, schedule: Q01DX010 (sc), vehicle: saline with Tween-80): 60 % of control | T/C [1]: 89 % of control

CC(=O)Nc1cscc1NC(C)=O
T/C [7]: 84 % of control | T/C [4]: 81 % of control | T/C [5]: 155 % of control | T/C [6]: 155 % of control | T/C [8]: 82 % of control | T/C [9]: 118 % of control

NCC1CCC(C(=O)O)CC1 (stereo not drawn)
T/C [10]: 119 % of control | T/C [11]: 93 % of control | T/C [12]: 112 % of control

Cc1oc2c(C)c3oc(=O)cc(C)c3cc2c1CCl
T/C [4]: 107 % of control | T/C [5]: 71 % of control | T/C [6]: 114 % of control

O=C1NC(O)c2ccccc2O1 (stereo not drawn)
T/C (dose: 100.0 mg/kg/injection, schedule: Q04DX004 (sc), vehicle: suspension in saline): 68 % of control | T/C (dose: 200.0 mg/kg/injection, schedule: Q04DX004 (sc), vehicle: suspension in saline): 115 % of control | T/C (dose: 400.0 mg/kg/injection, schedule: Q04DX004 (sc), vehicle: suspension in saline): 50 % of control | T/C (dose: 800.0 mg/kg/injection, schedule: Q04DX004 (sc), vehicle: suspension in saline): 55 % of control

COc1ccc(C(=O)c2no[n+]([O-])c2C(=O)c2ccc(OC)cc2)cc1
T/C (dose: 200.0 mg/kg/injection, schedule: Q04DX004 (sc), vehicle: saline with Tween-80): 182 % of control | T/C [10]: 117 % of control | T/C [11]: 71 % of control | T/C [12]: 83 % of control

CCCC(=O)Oc1ccc(/C=N/NC(N)=S)nc1
T/C [1]: 182 % of control | T/C [2]: 168 % of control

BrC1c2cccc3cccc(c23)C1Br (stereo not drawn)
T/C [4]: 186 % of control | T/C [8]: 36 % of control and 39 % of control

COc1cccc(C2NC(=O)c3c(n[nH]c3N)S2)c1O (stereo not drawn)
T/C [8]: 53 % of control | T/C [9]: 117 % of control

COc1ccc(Cl)[n+]([O-])n1
T/C (dose: 50.0 mg/kg/injection, schedule: Q04DX004 (sc), vehicle: Klucel (hydroxypropylcellulose) (HPC)): 64 % of control | T/C (dose: 100.0 mg/kg/injection, schedule: Q04DX004 (sc), vehicle: Klucel (hydroxypropylcellulose) (HPC)): 66 % of control

CCC(=O)N(C)[C@@H](C)C(=O)O[C@H]1CC(=O)N(C)c2cc(cc(OC)c2Cl)C/C(C)=C/C=C[C@@H](OC)[C@@]2(O)C[C@H](OC(=O)N2)[C@@H](C)[C@@H]2O[C@@]12C
T/C (dose: 0.03 mg/kg/injection, schedule: Q01DX010 (sc), vehicle: saline + alcohol): 171 % of control | T/C (dose: 0.06 mg/kg/injection, schedule: Q01DX010 (sc), vehicle: saline + alcohol): 65 % of control | T/C (dose: 0.07 mg/kg/injection, schedule: Q01DX010 (sc), vehicle: saline + alcohol): 120 % of control | T/C (dose: 0.12 mg/kg/injection, schedule: Q01DX010 (sc), vehicle: saline + alcohol): 34 % of control | T/C (dose: 0.13 mg/kg/injection, schedule: Q01DX010 (sc), vehicle: saline + alcohol): 69 % of control | T/C (dose: 0.25 mg/kg/injection, schedule: Q01DX010 (sc), vehicle: saline + alcohol): 2 % of control and 18 % of control

CC(=O)[C@]1(O)Cc2c(O)c3c(c(O)c2[C@@H](OC2CC(N)C(O)C(C)O2)C1)C(=O)c1c(O)cccc1C3=O (stereo partly drawn)
T/C (dose: 0.63 mg/kg/injection, schedule: Q04DX004 (sc), vehicle: saline): 50 % of control | T/C (dose: 1.25 mg/kg/injection, schedule: Q04DX004 (sc), vehicle: saline): 68 % of control

N#CC(=C1C=CC(=NO)C=C1)c1ccc(Cl)cc1
T/C (dose: 50.0 mg/kg/injection, schedule: Q04DX004 (sc), vehicle: saline with Tween-80): 80 % of control | T/C (dose: 100.0 mg/kg/injection, schedule: Q04DX004 (sc), vehicle: saline with Tween-80): 90 % of control | T/C [10]: 113 % of control
